# Results reported in US20160347813A1, “GLUCAGON ANALOGUES” (Zealand Pharma A/S, priority 2011, published 2016).
# Residues, ends and D or L forms follow the SMILES beside them.
# Molecular target: T1, human GLP-1-R (Homo sapiens, UniProt P43220)
# T1 construct: The DNA encoding the Glucagon-R or the GLP-1-R was amplified by PCR using primers encoding terminal restriction sites for subcloning; expressed in transfected cells
# Assay: GLP-1 receptor efficacy assay (cAMP generation in HEK293 cells)
# Assay type: cell-based
# Settings: cAMP generation in HEK293 cells expressing GLP-1 receptor
# Excerpt: The DNA encoding the Glucagon-R or the GLP-1-R was amplified by PCR using primers encoding terminal restriction sites for subcloning. The 5′-end primers additionally encoded a near Kozak consensus sequence to ensure efficient translation. The fidelity of the DNA encoding the Glucagon-R and the GLP-1-R was confirmed by DNA sequencing. The PCR products encoding the Glucagon-R or the GLP-1-R were subcloned into a mammalian expression vector containing a neomycin (G418) resistance marker. The mammalian expression vectors encoding the Glucagon-R or the GLP-1-R were transfected into HEK293 cells by a standard calcium phosphate transfection method. 48 hr after transfection cells were seeded for limited dilution cloning and selected with 1 mg/ml G418 in the culture medium. Three weeks later 12 surviving colonies of Glucagon-R and GLP-1-R expressing cells were picked, propagated and tested in the Glucagon-R and GLP-1-R efficacy assays as described below. One Glucagon-R expressing clone and one GLP-1-R expressing clone were chosen for compound profiling.
# On the day of analysis, growth medium was removed and the cells washed once with 200 μl Tyrode buffer. Cells were incubated in 100 μl Tyrode buffer containing increasing concentrations of test peptides, 100 μM IBMX, and 6 mM glucose for up 15 min at 37° C. The reaction was stopped by addition of 25 μl 0.5 M HCl and incubated on ice for 60 min. The cAMP content was estimated using the FlashPlate® cAMP kit from Perkin-Elmer according to manufacturer instructions. EC50 and relative efficacies compared to reference compounds (glucagon and GLP-1) were estimated by computer aided curve fitting.
# T1 sequence (P43220 24-463): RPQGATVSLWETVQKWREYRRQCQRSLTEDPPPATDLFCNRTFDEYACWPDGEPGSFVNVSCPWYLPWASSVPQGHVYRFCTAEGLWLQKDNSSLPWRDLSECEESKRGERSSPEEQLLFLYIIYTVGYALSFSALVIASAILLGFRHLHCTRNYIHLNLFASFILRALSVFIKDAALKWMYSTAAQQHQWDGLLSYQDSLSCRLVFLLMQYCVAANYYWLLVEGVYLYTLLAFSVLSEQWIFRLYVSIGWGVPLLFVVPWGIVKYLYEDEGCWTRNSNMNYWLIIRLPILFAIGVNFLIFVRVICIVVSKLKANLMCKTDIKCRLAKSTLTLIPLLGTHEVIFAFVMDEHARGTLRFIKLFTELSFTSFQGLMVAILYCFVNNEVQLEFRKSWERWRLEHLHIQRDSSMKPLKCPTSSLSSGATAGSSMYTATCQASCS
row,SMILES,EC50 [nM]
1,"CCCCCCCCCCCCCCCC(=O)N[C@@H](CCC(=O)NCCCC[C@H](NC(=O)[C@H](CC(=O)O)NC(=O)[C@H](CC(C)C)NC(=O)[C@H](Cc1ccc(O)cc1)NC(=O)[C@H](CCCCN)NC(=O)[C@H](CO)NC(=O)[C@H](Cc1ccc(O)cc1)NC(=O)[C@H](CC(=O)O)NC(=O)[C@H](CO)NC(=O)[C@@H](NC(=O)[C@H](Cc1ccccc1)NC(=O)[C@@H](NC(=O)CNC(=O)[C@H](CCC(N)=O)NC(=O)C(C)(C)NC(=O)[C@@H](N)Cc1c[nH]cn1)[C@@H](C)O)[C@@H](C)O)C(=O)N[C@@H](CCCNC(=N)N)C(=O)N[C@@H](CCCNC(=N)N)C(=O)N[C@@H](C)C(=O)N[C@@H](CCCCN)C(=O)N[C@@H](CC(=O)O)C(=O)N[C@@H](Cc1ccccc1)C(=O)N[C@H](C(=O)N[C@@H](CCC(=O)O)C(=O)N[C@@H](Cc1c[nH]c2ccccc12)C(=O)N[C@@H](CC(C)C)C(=O)N[C@@H](CC(C)C)C(=O)N[C@@H](CO)C(=O)N[C@@H](C)C(N)=O)[C@@H](C)CC)C(=O)O [Compound 1] (HELM PEPTIDE1{H.[Aib].Q.G.T.F.T.S.D.Y.S.K.Y.L.D.K.R.R.A.K.D.F.I.E.W.L.L.S.A.[am]}|PEPTIDE2{[CCCCCCCCCCCCCCCC(=O)[*:2]].[gGlu]}$PEPTIDE1,PEPTIDE2,16:R3-2:R2$$$V2.0)",0.12
2,"CCCCCCCCCCCCCCCC(=O)N[C@@H](CCC(=O)NCCCC[C@H](NC(=O)[C@H](CCC(=O)O)NC(=O)[C@H](CC(=O)O)NC(=O)[C@H](CC(C)C)NC(=O)[C@H](Cc1ccc(O)cc1)NC(=O)[C@H](CCCNC(=N)N)NC(=O)[C@H](CO)NC(=O)[C@H](Cc1ccc(O)cc1)NC(=O)[C@H](CC(=O)O)NC(=O)[C@H](CO)NC(=O)[C@@H](NC(=O)[C@H](Cc1ccccc1)NC(=O)[C@@H](NC(=O)CNC(=O)[C@@H]1CCCN1C(=O)[C@@H](CO)NC(=O)[C@@H](N)Cc1c[nH]cn1)[C@@H](C)O)[C@@H](C)O)C(=O)N[C@@H](CCCNC(=N)N)C(=O)N[C@@H](C)C(=O)N[C@@H](CCCNC(=N)N)C(=O)N[C@@H](CC(=O)O)C(=O)N[C@@H](Cc1ccccc1)C(=O)N[C@H](C(=O)N[C@@H](CCC(=O)O)C(=O)N[C@@H](Cc1c[nH]c2ccccc12)C(=O)N[C@@H](CC(C)C)C(=O)N[C@@H](CC(C)C)C(=O)N[C@@H](CO)C(=O)N[C@@H](C)C(N)=O)[C@@H](C)CC)C(=O)O [Compound 14] (HELM PEPTIDE1{H.[dS].P.G.T.F.T.S.D.Y.S.R.Y.L.D.E.K.R.A.R.D.F.I.E.W.L.L.S.A.[am]}|PEPTIDE2{[CCCCCCCCCCCCCCCC(=O)[*:2]].[gGlu]}$PEPTIDE1,PEPTIDE2,17:R3-2:R2$$$V2.0)",0.12
3,"CCCCCCCCCCCCCCCC(=O)N[C@@H](CCC(=O)NCCCC[C@H](NC(=O)[C@H](CCC(=O)O)NC(=O)[C@H](CC(=O)O)NC(=O)[C@H](CC(C)C)NC(=O)[C@H](Cc1ccc(O)cc1)NC(=O)[C@H](CCCNC(=N)N)NC(=O)[C@H](CO)NC(=O)[C@H](Cc1ccc(O)cc1)NC(=O)[C@H](CC(=O)O)NC(=O)[C@H](CO)NC(=O)[C@@H](NC(=O)[C@H](Cc1ccccc1)NC(=O)[C@@H](NC(=O)CNC(=O)[C@H](CCC(N)=O)NC(=O)C(C)(C)NC(=O)[C@@H](N)Cc1c[nH]cn1)[C@@H](C)O)[C@@H](C)O)C(=O)N[C@@H](CCCNC(=N)N)C(=O)N[C@@H](C)C(=O)N[C@@H](CCCCN)C(=O)N[C@@H](CC(=O)O)C(=O)N[C@@H](Cc1ccccc1)C(=O)N[C@H](C(=O)N[C@@H](CCC(=O)O)C(=O)N[C@@H](Cc1c[nH]c2ccccc12)C(=O)N[C@@H](CC(C)C)C(=O)N[C@@H](CC(C)C)C(=O)N[C@@H](CO)C(=O)N[C@@H](C)C(N)=O)[C@@H](C)CC)C(=O)O [Compound 16] (HELM PEPTIDE1{H.[Aib].Q.G.T.F.T.S.D.Y.S.R.Y.L.D.E.K.R.A.K.D.F.I.E.W.L.L.S.A.[am]}|PEPTIDE2{[CCCCCCCCCCCCCCCC(=O)[*:2]].[gGlu]}$PEPTIDE1,PEPTIDE2,17:R3-2:R2$$$V2.0)",0.06

# Now from value to compound:
row,EC50 [nM],SMILES
1,0.06,"CCCCCCCCCCCCCCCC(=O)N[C@@H](CCC(=O)NCCCC[C@H](NC(=O)[C@H](CCC(=O)O)NC(=O)[C@H](CC(=O)O)NC(=O)[C@H](CC(C)C)NC(=O)[C@H](Cc1ccc(O)cc1)NC(=O)[C@H](CCCNC(=N)N)NC(=O)[C@H](CO)NC(=O)[C@H](Cc1ccc(O)cc1)NC(=O)[C@H](CC(=O)O)NC(=O)[C@H](CO)NC(=O)[C@@H](NC(=O)[C@H](Cc1ccccc1)NC(=O)[C@@H](NC(=O)CNC(=O)[C@H](Cc1c[nH]cn1)NC(=O)C(C)(C)NC(=O)[C@@H](N)Cc1c[nH]cn1)[C@@H](C)O)[C@@H](C)O)C(=O)N[C@@H](CCCNC(=N)N)C(=O)N[C@@H](C)C(=O)N[C@@H](CCCNC(=N)N)C(=O)N[C@@H](CC(=O)O)C(=O)N[C@@H](Cc1ccccc1)C(=O)N[C@H](C(=O)N[C@@H](CCC(=O)O)C(=O)N[C@@H](Cc1c[nH]c2ccccc12)C(=O)N[C@@H](CC(C)C)C(=O)N[C@@H](CC(C)C)C(=O)N[C@@H](CO)C(=O)N[C@@H](C)C(N)=O)[C@@H](C)CC)C(=O)O [Compound 12] (HELM PEPTIDE1{H.[Aib].H.G.T.F.T.S.D.Y.S.R.Y.L.D.E.K.R.A.R.D.F.I.E.W.L.L.S.A.[am]}|PEPTIDE2{[CCCCCCCCCCCCCCCC(=O)[*:2]].[gGlu]}$PEPTIDE1,PEPTIDE2,17:R3-2:R2$$$V2.0)"
2,0.06,"CCCCCCCCCCCCCCCC(=O)N[C@@H](CCC(=O)NCCCC[C@H](NC(=O)[C@H](CCC(=O)O)NC(=O)[C@H](CC(=O)O)NC(=O)[C@H](CC(C)C)NC(=O)[C@H](Cc1ccc(O)cc1)NC(=O)[C@H](CCCNC(=N)N)NC(=O)[C@H](CO)NC(=O)[C@H](Cc1ccc(O)cc1)NC(=O)[C@H](CC(=O)O)NC(=O)[C@H](CO)NC(=O)[C@@H](NC(=O)[C@H](Cc1ccccc1)NC(=O)[C@@H](NC(=O)CNC(=O)[C@@H]1CCCN1C(=O)C(C)(C)NC(=O)[C@@H](N)Cc1c[nH]cn1)[C@@H](C)O)[C@@H](C)O)C(=O)N[C@@H](CCCNC(=N)N)C(=O)N[C@@H](C)C(=O)N[C@@H](CCCNC(=N)N)C(=O)N[C@@H](CC(=O)O)C(=O)N[C@@H](Cc1ccccc1)C(=O)N[C@H](C(=O)N[C@@H](CCC(=O)O)C(=O)N[C@@H](Cc1c[nH]c2ccccc12)C(=O)N[C@@H](CC(C)C)C(=O)N[C@@H](CC(C)C)C(=O)N[C@@H](CO)C(=O)N[C@@H](C)C(N)=O)[C@@H](C)CC)C(=O)O [Compound 15] (HELM PEPTIDE1{H.[Aib].P.G.T.F.T.S.D.Y.S.R.Y.L.D.E.K.R.A.R.D.F.I.E.W.L.L.S.A.[am]}|PEPTIDE2{[CCCCCCCCCCCCCCCC(=O)[*:2]].[gGlu]}$PEPTIDE1,PEPTIDE2,17:R3-2:R2$$$V2.0)"
